Reference: patent US7645740B2, “Peptide sequence found in Laminin 5 for treating skin impairments” (Laboratoires d'Anjou Centre National de la Recherche …, priority 2004, dated 2010)

Experiments:
A431 cells = experiment: Cell proliferation test (XTT), A431; assay type: cell-based; conditions: A431, peptide 0.5% and 1%, serum-free medium, 5th hour
Procedure: A431 cells were seeded in 96-well plates at a rate of 10,000 cells per well. After 24 hours, the culture medium was removed and replaced with serum-free medium containing the peptide quantities given in the graphs and reagent XTT. The plates were then placed in the incubator at 37° C. and absorbance readings were taken at 1 h, 2 h, 3 h, 4 h and 5 h. Peptide-free controls were carried out on the same plate.
The effect of the peptide on cell proliferation was analysed with the aid of a calorimetric test (Cell Proliferation Kit XTT, Roche Diagnostics, Meylan, France) on the cells use for the cell adhesion test, i.e. HT1080, A431, HBL100 cells and normal human keratinocytes from young and elderly individuals.
The chemical reaction used in the test is based on the production of NADPH by living cells, leading to the reduction of yellow tetrazolium XTT salts to orange formazan salts. Absorbance was measured at 490 nm using an ELISA plate reader. […] After 24 hours in culture at 37° C. with 5% CO2, the culture medium was removed and replaced with serum-free medium containing the peptide quantities given in the graphs and the test reagent. The plates were then placed in the incubator at 37° C. and absorbance readings were taken at 1 h, 2 h, 3 h, 4 h and 5 h. […] In this case, cell viability was calculated according to the following formula: % viability=(Abs. Cells with peptide/Abs. Control cells)×100.

NHKs = experiment: Effect of the peptide in soluble form on keratinocyte behaviour in culture; assay type: cell-based, human
Procedure: NHKs were seeded in 12-well plates at a rate of 5,000 cells per well. After 24 hours, the culture medium was removed and replaced with new medium containing 5%, 2.5%, 1.25%, 0.6% and 0.3% peptide (B—F). A peptide-free control was carried. The plates were then placed in the incubator at 37° C. for 48 hours. Observations were made with an Axiovert 40 Zeiss microscope. Bar=50 μm
Observation at higher magnification of the cell colonies described in FIG. 6 using an Axiovert 40 Zeiss microscope equipped with a PlasDisc interferential block. Bar=50 μm
Keratinocytes were seeded in 12-well plates (Costar) at a rate of 5,000 cells per well in KBM-2 medium. After 24 hours in culture at 37° C. with 5% CO2, the culture medium was removed and replaced with KBM-2 medium containing the peptide quantities given in the figures (a peptide-free control was also carried out). After 24 hours in culture, the same quantity of peptide was added to the culture medium and the experiment was stopped after a further 24 hours in culture. Microscope analyse was carried out without preliminary fixation using an Axiovert 40 Zeiss microscope coupled to a Coolsnap camera (Roper Scientific, Evry, France).

[1] = Quantity of peptide immobilized on 96-well plates by amino acid analysis; conditions: 18 hours at +4° C.
Procedure: The peptide was diluted in sterile PBS. Samples containing the peptide to be assayed were lyophilized by evaporation. They were deposited in a reactor and placed under vacuum in order to eliminate oxygen likely to oxidize certain amino acids. Hydrolysis of the peptide bonds was carried out in a hydrochloric acid mixture (HCL 6N, ⅔), trifluoroacetic acid (TFA, ⅓) at 150° C. for 45 minutes. Gas hydrolysis prevented contamination by ions present in the acids. The samples were then dried and dissolved in a suitable buffer for ion-exchange chromatography (sodium citrate). Ion-exchange chromatography makes it possible to separate amino acids according to their ionic strength and, on leaving the column, they react with a reagent (ninhydrin) to form a dyed complex with primary amines (violet, readable at 570 nm). Ninhydrin also reacts with secondary amines (proline, hydroxyproline) to form a yellow compound that can be read at 440 nm. Two separate chromatograms allow the samples to be analysed.
A semi-automatic Beckman 6300 analyser optimised for this analysis was used along with Beckman Gold software in order to quantify the chromatograms. […]
FIG. 17 gives the data obtained in the experiments aimed at identifying the assay conditions for the peptide deposited in 96-well plates and not immobilized. Five experiments were carried out with decreasing quantities of peptide, from 5 μg to 0.7 μg. […]

For “TALRIRATYGEY (Human laminin 5) [Peptide 1]”, the “mean increase in cell proliferation compared to the control” value (A431 cells) was 8%, the “cell morphology vs control cells” value (NHKs; NHKs cultured with the peptide, higher magnification (FIG. 12)) was “no morphological difference” and the “effect of peptide added to culture medium on colony formation” value (NHKs; NHKs, 5%, 2.5%, 1.25%, 0.6% and 0.3% peptide in medium, 48 hours, vs peptide-free control) was “faster formation of cohesive colonies”. The “quantity of peptide remaining in the supernatant after immobilization, of quantity added” value ([1]; 3.55 μg, 2.56 μg, 1.23 μg and 0.73 μg deposited) was “approximately 90%” and the “mean quantity remaining in solution in the wells” value ([1]; Q1, average starting quantity 2.44 μg, five supernatants) was 2.212 µg.
